One test deals with GluN1/GluN2D NMDARs (Rattus norvegicus, UniProt P35439+Q62645). Briefly: Two-electrode voltage-clamp recordings, Xenopus laevis oocytes expressing GluN1/GluN2D. The test is classed as cell-based. Conditions: for Emax: read-out: Maximal Degree of Modulation (% of control). The method, then:
cDNAs for rat wild type NMDAR subunits GluN1-1a (GenBank U11418, U08261; hereafter GluN1 or GluN1a), GluN1-1b (U08263, hereafter GluN1b), GluN2A (D13211), GluN2B (U11419), Glu[…]), and Glu[…], modified as described in [Monyer et al., 1994]) were provided by Drs. S. Heinemann (Salk Institute), S. Nakanishi (Kyoto University), and P. Seeburg (University of Heidelberg). Site-directed mutagenesis was conducted using the QuikChange kit (Agilent Technologies, Santa Clara, CA) following the recommended protocol. DNA sequencing was used to verify all mutations. The amino acid numbering system started with the initiating methionine as residue number one. For expression in Xenopus laevis oocytes, cDNA constructs were linearized by restriction enzymes, and subsequently used to synthesize in vitro cRNAs following the manufacturer's protocol (mMessage mMachine, Ambion, ThermoFisher Scientific, Waltham, MA). […] All extracellular solutions were made from a solution containing (in mM) 90 NaCl, 1 KCl, 10 HEPES, 0.5 BaCl2, 0.01 EDTA (pH 7.4 with NaOH). Experiments were performed using an eight port Modular Valve Positioner (Hamilton Company, Reno, NV) and controlled by custom software (Easy Oocyte, Emory University, Atlanta, GA)to exchange solutions. Oocyte currents were recorded at a holding potential of -40 mV using a two-electrode voltage-clamp amplifier (OC-725B or OC-725C, Warner Instruments, Hamden, CT). […] Measurements are given as mean ± SEM unless otherwise indicated. […] EC50 and IC50 values and confidence intervals reported were calculated by averaging the log(EC50) or log(IC50) value, determining confidence intervals for mean log(EC50) or log(IC50), and converting back to units of molarity. Statistical significance evaluations (α set to 0.05) were performed using a one-way ANOVA with Dunnett's multiple comparison test, a paired t-test, or other appropriate tests as described.
Background: In two-electrode clamp one electrode senses voltage and the other passes current.

For the next test, the system named is NMDARs. The test can be described thus: Whole-cell recordings of modulation at +40 mV and -60 mV (voltage dependence). The test is classed as cell-based, rat. Conditions: 10 µM test compound. The method, then:
Figure 4. The association and dissociation time course of EU1794-2, EU1794-4 and EU1794-27 differ at GluN1/GluN2A and GluN1/GluN2D. (A) Representative whole-cell current recordings of GluN1/GluN2D NMDARs exemplifying the modulation time course of EU1794-2, EU1794-4 and EU1794-27 (1, 3, 10 µM). […] Insets show the steady state modulation extent from the HEK cell experiments fit by the Hill equation (Hill slope fixed to 1). (B) Analysis of the time course for the onset of PAM and NAM action as a function of concentrations for EU1794-2 (left), EU1794-4 (left) and EU1794-27 (right) used to determine the association rate kON (black circles) and dissociation rate kOFF (grey squares), from which we can calculate Kd for each modulator. Data are from at least 3 cells for each concentration of modulator. For EU1794-27 the association and dissociation rate linear component was also found to be concentration dependent (mon = −0.98 pA/(ms*µM), moff = 0.62 pA/(ms*µM)). (C,D) Similar set of panels as A,B but examining EU1794-2, EU1794-4 and EU1794-27 modulation of GluN1/GluN2A. In example recordings, all modulator concentrations are 10 µM. Data are from at least 3 cells for each concentration of modulator. For EU1794-27 time-course was fitted with the sum of an exponential and linear function, and both the time constant and slope were concentration dependent (mon = −0.33 pA/(s*µM), moff = 0.16 pA/(s*µM)). Figure 4—figure supplement 1. The actions of EU1794 modulators are voltage-independent and are influenced by the desensitization level. (A–C) A representative current response of EU1794-2 (A, the ratio of the % modulation by EU1794-2 at +40 mV and −60 mV was 1.1 ± 0.27, n = 3), EU1794-4 (B, the ratio of modulation at +40 mV and −60 mV was 0.88 ± 0.06, n = 6) and EU1794-27 (C, the ratio of modulation at +40 mV and −60 mV was 0.99 ± 0.15, n = 3) modulation with the Vm held at +40 mV and −60 mV; all responses shown were using 10 µM of test compound. […]

The mark [1] stands for this setting: glutamate/glycine 100/30 µM, no second modulator (+EU1794-27 0 µM), read-out: IC50 (µM) [conf. int.].
[2] abbreviates: saturating glutamate/glycine 100/30 µM, mean [95% CI], read-out: EC50 (µM) [conf. int.].
Where [3] appears, read: saturating glutamate/glycine 100/30 µM, mean ± SEM.
[4] abbreviates: sub-saturating glutamate/glycine 0.6/0.2 µM, read-out: EC50 (µM) [conf. int.].
Where [5] appears, read: sub-saturating glutamate/glycine 0.6/0.2 µM.

Structures are written as SMILES. Read-outs that look alike come from different tables or passages of the source. Marks after values point to notes of the source that are not given here.

The record followed here is publication PMC5967867, “An NMDAR positive and negative allosteric modulator series share a binding site and are interconverted by methyl groups” (eLife, 2018).

Chain of GluN1/GluN2D NMDARs (Q62645 28-1323, other chains not shown): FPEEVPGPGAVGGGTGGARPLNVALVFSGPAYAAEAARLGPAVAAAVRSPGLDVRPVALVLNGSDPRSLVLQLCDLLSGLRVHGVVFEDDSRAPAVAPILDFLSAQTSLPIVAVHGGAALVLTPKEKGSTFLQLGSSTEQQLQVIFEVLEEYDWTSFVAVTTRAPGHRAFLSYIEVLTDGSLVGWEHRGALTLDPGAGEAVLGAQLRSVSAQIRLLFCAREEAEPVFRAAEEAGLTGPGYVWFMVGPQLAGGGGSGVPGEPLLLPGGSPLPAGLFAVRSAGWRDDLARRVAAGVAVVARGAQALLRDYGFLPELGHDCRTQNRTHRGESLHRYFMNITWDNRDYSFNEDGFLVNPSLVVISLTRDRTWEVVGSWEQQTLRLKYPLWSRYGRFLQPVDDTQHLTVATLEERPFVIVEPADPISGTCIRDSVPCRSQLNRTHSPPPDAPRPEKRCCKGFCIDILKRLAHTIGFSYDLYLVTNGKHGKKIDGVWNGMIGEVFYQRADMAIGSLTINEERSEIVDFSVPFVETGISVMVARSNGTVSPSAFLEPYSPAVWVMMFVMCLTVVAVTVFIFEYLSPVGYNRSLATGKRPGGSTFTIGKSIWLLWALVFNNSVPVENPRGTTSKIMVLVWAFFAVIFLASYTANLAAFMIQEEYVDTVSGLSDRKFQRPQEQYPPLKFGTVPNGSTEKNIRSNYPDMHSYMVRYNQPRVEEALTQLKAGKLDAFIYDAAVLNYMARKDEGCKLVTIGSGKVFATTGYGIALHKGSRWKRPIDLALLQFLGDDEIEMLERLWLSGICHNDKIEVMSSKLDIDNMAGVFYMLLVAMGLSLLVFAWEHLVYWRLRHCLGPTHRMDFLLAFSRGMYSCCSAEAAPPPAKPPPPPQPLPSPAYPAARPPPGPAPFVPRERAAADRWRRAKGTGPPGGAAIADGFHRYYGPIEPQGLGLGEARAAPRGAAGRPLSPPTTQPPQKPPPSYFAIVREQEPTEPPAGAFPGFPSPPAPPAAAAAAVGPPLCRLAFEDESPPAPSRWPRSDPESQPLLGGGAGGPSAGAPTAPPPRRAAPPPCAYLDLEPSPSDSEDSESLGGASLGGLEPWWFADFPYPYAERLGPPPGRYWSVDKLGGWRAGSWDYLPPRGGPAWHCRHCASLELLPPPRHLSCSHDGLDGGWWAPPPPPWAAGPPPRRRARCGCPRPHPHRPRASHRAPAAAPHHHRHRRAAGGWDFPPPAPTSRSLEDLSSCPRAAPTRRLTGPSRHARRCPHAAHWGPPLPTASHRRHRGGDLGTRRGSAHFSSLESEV

One may read the IC50 as the midpoint of a concentration-inhibition curve. A word on the EC50: it is the concentration giving half of the maximal effect. Regarding `CCOC(=O)c1c(NC(=O)CC2SC(=N)NC2=O)sc2c1CCC(C)C2` (centres unmarked) [EU1794-2, ethyl 2-(2-(2-imino-4-oxothiazolidin-5-yl)acetamido)-6-methyl-4,5,6,7-tetrahydrobenzo[b]thiophene-3-carboxylate], the IC50 at GluN1/GluN2D NMDARs (+EU1794-27 3 µM, glutamate/glycine 100/30 µM, read-out: EU1794-2 IC50 (µM) [conf. int.]) was determined as 1.4 µM; at GluN1/GluN2D NMDARs (+EU1794-27 10 µM, glutamate/glycine 100/30 µM, read-out: EU1794-2 IC50 (µM) [conf. int.]), 2.7 µM; at GluN1/GluN2D NMDARs (+EU1794-27 20 µM, glutamate/glycine 100/30 µM, read-out: EU1794-2 IC50 (µM) [conf. int.]), 7.3 µM; at GluN1/GluN2D NMDARs (setting [1]), 0.2 µM. For the same molecule, the EC50 at GluN1/GluN2D NMDARs (setting [2]) worked out at 0.2 µM; on GluN1/GluN2D NMDARs (setting [4]) it was 0.32 µM. Further, the Emax on GluN1/GluN2D NMDARs (setting [3]) is 14%; on GluN1/GluN2D NMDARs (setting [5]) it was 24%. In addition, the “ratio of the % modulation at +40 mV and −60 mV” value (“ratio of the % modulation” for short) with NMDARs was found to be 1.1 ± 0.27.

Consider `CCOC(=O)c1c(NC(=O)CC2SC(=N)NC2=O)sc2c1CCCC2` (centres unmarked) [EU1794-4, ethyl 2-(2-(2-imino-4-oxothiazolidin-5-yl)acetamido)-4,5,6,7-tetrahydrobenzo[b]thiophene-3-carboxylate], for which the “Fold Difference (glutamate EC50)” value on GluN1/GluN2D NMDARs (control vs 10 µM EU1794-4) is listed as 3.9^†. For the same molecule, the “Fold Difference (glycine EC50)” value at GluN1/GluN2D NMDARs (control vs 10 µM EU1794-4) is recorded as 8.9^†. Moreover, the IC50 at GluN1/GluN2D NMDARs (setting [1]) worked out at 0.36 µM. Moreover, the EC50 on GluN1/GluN2D NMDARs (setting [2]) turned out to be 0.36 µM; at GluN1/GluN2D NMDARs (sub-saturating glutamate/glycine 0.3/0.09 µM, read-out: EC50 (µM) [conf. int.]), 14 µM. Further, the figures for the Emax on GluN1/GluN2D NMDARs (setting [3]) and at GluN1/GluN2D NMDARs (sub-saturating glutamate/glycine 0.3/0.09 µM) were 51% and 540%, respectively. Besides, the “ratio of the % modulation” value with NMDARs turned out to be 0.88 ± 0.06.

`CC(C)(C)OC(=O)c1c(NC(=O)CC2SC(=N)NC2=O)sc2c1CCCC2` (centres unmarked) [EU1794-27, tert-butyl 2-(2-(2-imino-4-oxothiazolidin-5-yl)acetamido)-4,5,6,7-tetrahydrobenzo[b]thiophene-3-carboxylate]: the EC50 was 7.5 µM at GluN1/GluN2D NMDARs (+EU1794-2 1 µM, glutamate/glycine 100/30 µM, read-out: EU1794-27 EC50 (µM) [conf. int.]); 7.8 µM on GluN1/GluN2D NMDARs (+EU1794-2 3 µM, glutamate/glycine 100/30 µM, read-out: EU1794-27 EC50 (µM) [conf. int.]); 2.4 µM on GluN1/GluN2D NMDARs (setting [2]); 8.3 µM on GluN1/GluN2D NMDARs (setting [4]). For the same molecule, the “Fold Difference (glutamate EC50)” value at GluN1/GluN2D NMDARs (control vs 10 µM EU1794-27) is 5.3^†. Moreover, on GluN1/GluN2D NMDARs (control vs 10 µM EU1794-27), the “Fold Difference (glycine EC50)” value is 4.9^†. The Emax on GluN1/GluN2D NMDARs (setting [3]) was determined as 250%; at GluN1/GluN2D NMDARs (setting [5]), 580%. In addition, the “ratio of the % modulation” value with NMDARs is on record as 0.99 ± 0.15.
